Read-outs that look alike come from different tables or passages of the source.
Experiments:
human BTK = human BTK (Homo sapiens (Human), UniProt Q06187); experiment: BTK kinase inhibitory activity, ADP Glo kinase assay
JAK3 kinase = JAK3 kinase (Mus musculus (Mouse), UniProt Q62137); experiment: JAK3-mediated cell assay (HT-2/IL-2 assay), STAT5 phosphorylation HTRF; assay type: cell-based; conditions: STAT5 phosphorylation induced by IL-2 (20 ng/ml, 10 minutes) in HT-2 cells, compound treatment 30 minutes
JAK3 kinase, sequence (Q62137 whole entry): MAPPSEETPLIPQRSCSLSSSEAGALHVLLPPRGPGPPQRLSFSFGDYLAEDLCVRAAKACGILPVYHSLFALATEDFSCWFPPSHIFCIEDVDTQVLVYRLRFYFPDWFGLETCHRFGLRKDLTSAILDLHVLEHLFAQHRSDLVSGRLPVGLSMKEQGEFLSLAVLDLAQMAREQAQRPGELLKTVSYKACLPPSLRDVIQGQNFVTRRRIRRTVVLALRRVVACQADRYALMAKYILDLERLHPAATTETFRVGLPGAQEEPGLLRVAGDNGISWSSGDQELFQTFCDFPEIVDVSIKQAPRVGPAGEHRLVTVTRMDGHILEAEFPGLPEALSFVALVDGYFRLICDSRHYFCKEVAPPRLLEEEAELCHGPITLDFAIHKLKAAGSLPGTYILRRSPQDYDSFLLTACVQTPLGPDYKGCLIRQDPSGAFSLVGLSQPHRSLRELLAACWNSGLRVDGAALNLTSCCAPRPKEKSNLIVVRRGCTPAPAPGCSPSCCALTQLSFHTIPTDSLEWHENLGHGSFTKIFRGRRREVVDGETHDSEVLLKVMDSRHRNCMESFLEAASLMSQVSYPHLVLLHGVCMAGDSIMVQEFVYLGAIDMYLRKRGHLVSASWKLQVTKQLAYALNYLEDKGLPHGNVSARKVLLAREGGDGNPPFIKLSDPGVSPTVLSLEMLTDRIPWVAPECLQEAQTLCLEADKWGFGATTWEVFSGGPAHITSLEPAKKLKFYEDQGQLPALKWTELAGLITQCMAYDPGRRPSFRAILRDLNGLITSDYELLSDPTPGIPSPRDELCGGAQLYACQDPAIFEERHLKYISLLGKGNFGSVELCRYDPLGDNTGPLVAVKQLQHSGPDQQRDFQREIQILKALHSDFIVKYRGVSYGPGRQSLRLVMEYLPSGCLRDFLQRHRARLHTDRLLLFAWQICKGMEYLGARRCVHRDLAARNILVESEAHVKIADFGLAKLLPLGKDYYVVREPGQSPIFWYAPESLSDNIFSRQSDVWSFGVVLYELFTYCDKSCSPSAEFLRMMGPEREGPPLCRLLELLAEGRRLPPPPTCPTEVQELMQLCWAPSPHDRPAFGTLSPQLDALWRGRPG
Protocol: The inhibitory activities against JAK3 kinase at the cellular level were measured for the compounds prepared in the Examples through in vitro analysis of STAT5 phosphorylation induced by IL-2 stimulation in HT-2 cells. Specifically, STAT5 phosphorylation was analyzed using HTRF® phospho-STAT5 (Tyr694) assay kit (Cisbio, 64AT5PEG), which was purchased from Cisbio. HT-2 cells were cultured for 2 hours in growth factor-free medium. The cultured HT-2 cells were dispensed into 96-well plates by 50 ul so as to be a density of 2.5×10^5 cells/well. The compounds prepared in the previous Examples were prepared so as to be finally a 0.3% DMSO aqueous solution, and HT-2 cells was treated with the compounds for 30 minutes. After the compound treatment, IL-2 was prepared so as to be finally a concentration of 20 ng/ml, and HT-2 cells was treated for 10 minutes. The cells were then disrupted by treating lysis buffers for 30 minutes. The level of STAT5 phosphorylation was measured according to the instructions of HTRF® phospho-STAT5 assay kit, and the inhibitory activity of the compounds according to the invention was calculated. For the analysis of the results of each compound, Microsoft Excel was used, and IC50 values were calculated by SigmaPlot software.

human JAK3 = human JAK3 (Homo sapiens (Human), UniProt P52333); experiment: JAK3 kinase inhibitory activity, ADP Glo kinase assay; assay type: biochemical; conditions: recombinant purified human JAK3, ATP 5 uM, Poly(Glu4,Tyr1) peptide, 1 hour 30° C.
human JAK3, sequence (P52333 whole entry): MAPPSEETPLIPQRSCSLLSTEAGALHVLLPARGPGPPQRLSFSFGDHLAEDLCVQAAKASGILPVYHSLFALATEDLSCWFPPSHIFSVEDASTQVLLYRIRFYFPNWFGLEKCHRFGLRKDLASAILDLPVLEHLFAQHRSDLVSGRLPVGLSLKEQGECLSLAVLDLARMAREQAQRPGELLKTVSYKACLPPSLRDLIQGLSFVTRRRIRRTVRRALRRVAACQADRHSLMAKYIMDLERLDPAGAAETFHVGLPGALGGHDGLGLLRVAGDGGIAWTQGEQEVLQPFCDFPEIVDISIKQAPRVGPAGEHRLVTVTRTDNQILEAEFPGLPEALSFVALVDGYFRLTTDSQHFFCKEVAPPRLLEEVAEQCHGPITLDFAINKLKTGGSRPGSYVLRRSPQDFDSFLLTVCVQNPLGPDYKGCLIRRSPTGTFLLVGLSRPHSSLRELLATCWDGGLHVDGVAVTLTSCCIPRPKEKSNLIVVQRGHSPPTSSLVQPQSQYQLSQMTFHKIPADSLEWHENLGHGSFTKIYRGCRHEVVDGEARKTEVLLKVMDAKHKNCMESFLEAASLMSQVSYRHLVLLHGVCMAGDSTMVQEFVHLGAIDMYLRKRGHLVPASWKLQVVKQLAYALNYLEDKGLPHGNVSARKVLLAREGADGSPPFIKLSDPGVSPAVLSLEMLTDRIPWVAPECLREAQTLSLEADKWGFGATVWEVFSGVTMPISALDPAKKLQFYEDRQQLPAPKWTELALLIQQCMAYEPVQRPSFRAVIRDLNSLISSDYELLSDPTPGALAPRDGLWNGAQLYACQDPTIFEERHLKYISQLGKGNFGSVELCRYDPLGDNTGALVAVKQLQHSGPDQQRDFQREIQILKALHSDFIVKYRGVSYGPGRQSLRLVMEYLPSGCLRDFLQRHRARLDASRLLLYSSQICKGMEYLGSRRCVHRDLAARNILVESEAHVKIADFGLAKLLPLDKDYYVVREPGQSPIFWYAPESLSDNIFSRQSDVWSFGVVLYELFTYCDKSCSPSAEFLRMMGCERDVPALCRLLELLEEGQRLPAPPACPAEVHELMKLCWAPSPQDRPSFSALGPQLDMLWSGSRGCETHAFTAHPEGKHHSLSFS
Protocol: JAK3 and BTK kinases inhibitory activities were measured for the compounds prepared in the Examples through in vitro analysis on the ADP Glow (Glo) platform.
Specifically, the inhibitory activities against JAK3 and BTK kinase were measured using a JAK3 kinase assay kit (Promega, V9441) and a BTK kinase assay kit (Promega, V9071) which were purchased from Promega. […] After incubation (30° C.) for 1 hour, equivalent volume (25 uL per reaction) of ADP Glo was added and incubated (30° C.) for 40 minutes at room temperature. Then, a kinase detection reagent (50 uL per reaction) was added and incubated (30° C.) for 30 minutes at room temperature. The kinase activity was measured by chemiluminescence according to the instructions of ADP Glow kinase assay kit, and the inhibitory activity of the compounds according to the present disclosure was calculated.

[1] = read-out: BTK IC50, recombinant purified human BTK, ATP 10 uM, Poly(Glu4,Tyr1) peptide, 1 hour 30° C.

human BTK, sequence (Q06187 whole entry): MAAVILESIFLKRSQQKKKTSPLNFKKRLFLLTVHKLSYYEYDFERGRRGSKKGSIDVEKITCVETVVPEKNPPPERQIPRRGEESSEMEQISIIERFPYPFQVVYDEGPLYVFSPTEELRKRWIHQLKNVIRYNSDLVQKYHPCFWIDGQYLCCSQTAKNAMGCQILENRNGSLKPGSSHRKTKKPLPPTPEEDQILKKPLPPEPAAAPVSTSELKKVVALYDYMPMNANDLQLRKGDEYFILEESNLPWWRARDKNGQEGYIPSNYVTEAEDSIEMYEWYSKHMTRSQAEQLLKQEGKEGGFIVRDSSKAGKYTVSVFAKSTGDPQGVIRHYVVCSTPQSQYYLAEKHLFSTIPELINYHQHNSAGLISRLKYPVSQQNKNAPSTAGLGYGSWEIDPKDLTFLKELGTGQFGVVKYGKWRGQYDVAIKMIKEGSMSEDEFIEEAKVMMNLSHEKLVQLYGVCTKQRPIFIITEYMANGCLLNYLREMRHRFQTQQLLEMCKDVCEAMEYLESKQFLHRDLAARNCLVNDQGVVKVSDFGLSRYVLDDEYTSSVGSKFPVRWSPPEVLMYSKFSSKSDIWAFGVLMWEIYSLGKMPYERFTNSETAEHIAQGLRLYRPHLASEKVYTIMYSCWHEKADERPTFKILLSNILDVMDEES

IC50 (human BTK) [nM] | IC50 (JAK3 kinase) [nM] | IC50 (human JAK3) [nM] | IC50 (human BTK; [1]) [nM] | Compound
2.4 | 67.4 | 0.3 | – | C=CC(=O)N1CC[C@@H](F)[C@H](Oc2nc(Nc3cnn(CC)c3)nc3[nH]ccc23)C1 (racemic) [Example 1, 1-(trans-3-((2-((1-ethyl-1H-pyrazol-4-yl)amino)-7H-pyrrolo[2,3-d]pyrimidin-4-yl)oxy)-4-fluoropiperidin-1-yl)prop-2-en-1-one]
4.2 | 115 | 0.4 | – | C=CC(=O)N1CC[C@H](F)[C@H](Oc2nc(Nc3cnn(CC)c3)nc3[nH]ccc23)C1 (racemic) [Example 4, 1-(cis-3-((2-((1-ethyl-1H-pyrazol-4-yl)amino)-7H-pyrrolo[2,3-d]pyrimidin-4-yl)oxy)-4-fluoropiperidin-1-yl)prop-2-en-1-one]
2.1 | 72.3 | 0.3 | – | C=CC(=O)N1CC[C@@H](F)[C@H](Oc2nc(Nc3cnn(CC)c3)nc3[nH]cc(Cl)c23)C1 (racemic) [Example 9, 1-(trans-3-((5-chloro-2-((1-ethyl-1H-pyrazol-4-yl)amino)-7H-pyrrolo[2,3-d]pyrimidin-4-yl)oxy)-4-fluoropiperidin-1-yl)prop-2-en-1-one]
2.5 | 96 | 0.3 | – | C=CC(=O)N1CC[C@@H](F)[C@H](Oc2nc(Nc3cc(C)ns3)nc3[nH]cc(Cl)c23)C1 (racemic) [Example 11, 1-(trans-3-((5-chloro-2-((3-methylisothiazol-5-yl)amino)-7H-pyrrolo[2,3-d]pyrimidin-4-yl)oxy)-4-fluoropiperidin-1-yl)prop-2-en-1-one]
– | 101 | 0.2 | 1.5 | C=CC(=O)N1CC[C@@H](F)[C@@H](Oc2nc(Nc3cnn(CC)c3)nc3[nH]ccc23)C1 [Example 5, 1-((3S,4R)-3-((2-((1-ethyl-1H-pyrazol-4-yl)amino)-7H-pyrrolo[2,3-d]pyrimidin-4-yl)oxy)-4-fluoropiperidin-1-yl)prop-2-en-1-one]
– | 32.3 | 0.2 | 1.2 | C=CC(=O)N1CC[C@H](F)[C@@H](Oc2nc(Nc3cnn(CC)c3)nc3[nH]ccc23)C1 [Example 25, 1-((3S,4S)-3-((2-((1-ethyl-1H-pyrazol-4-yl)amino)-7H-pyrrolo[2,3-d]pyrimidin-4-yl)oxy)-4-fluoropiperidin-1-yl)prop-2-en-1-one]
– | – | > 80 | > 400 | C=CC(=O)N1CC[C@H](F)[C@H](Oc2nc(Nc3ccc4ncsc4c3)nc3[nH]ccc23)C1 [Example 34, 1-((3R,4S)-3-((2-(benzo[d]thiazol-6-ylamino)-7H-pyrrolo[2,3-d]pyrimidin-4-yl)oxy)-4-fluoropiperidin-1-yl)prop-2-en-1-one]

From patent publication US11339167B2, “Substituted piperidines as kinase inhibitors” (Daewoong Pharmaceutical Co., Ltd., priority 2017, dated 2022)
